In brackets after ≈: the same amount, converted by molar mass.
What was measured:
Format in all cases: functional
[1] = system: Streptococcus pneumoniae; experiment: Antimicrobial activity against Streptococcus pneumoniae WB4 by broth macrodilution method
[2] = system: Streptococcus pneumoniae; experiment: Antimicrobial activity in Streptococcus pneumoniae WB4 infected New Zealand white rabbit meningitis model assessed as decrease in viable cells in CSF at 125 mg/kg after 8 hrs
[3] = system: Streptococcus pneumoniae; experiment: Antimicrobial activity in Streptococcus pneumoniae WB4 infected New Zealand white rabbit meningitis model assessed as increase in [3H]choline release in CSF at 125 mg/kg after 4 to 6 hrs
[4] = system: Streptococcus pneumoniae; experiment: Antimicrobial activity in Streptococcus pneumoniae WB4 infected New Zealand white rabbit meningitis model assessed as decrease in viable cells in CSF at 15 mg/kg after 8 hrs
[5] = system: Streptococcus pneumoniae; experiment: Antimicrobial activity in Streptococcus pneumoniae WB4 infected New Zealand white rabbit meningitis model assessed as increase in [3H]choline release in CSF at 15 mg/kg after 4 hrs

Work on `CO/N=C(\C(=O)NC1C(=O)N2C(C(=O)O)=C(COC(C)=O)CS[C@H]12)c1csc(N)n1` (single isomer, unassigned) [CEFOTAXIME] yielded an MIC [1] of 1 µg/mL (≈ 2.2 µM).
`CN[C@H](CC(C)C)C(=O)N[C@H]1C(=O)N[C@@H](CC(N)=O)C(=O)N[C@H]2C(=O)N[C@H]3C(=O)N[C@H](C(=O)N[C@H](C(=O)O)c4cc(O)cc(O)c4-c4cc3ccc4O)[C@H](O)c3ccc(c(Cl)c3)Oc3cc2cc(c3O[C@@H]2O[C@H](CO)[C@@H](O)[C@H](O)[C@H]2O[C@H]2C[C@](C)(N)[C@H](O)[C@H](C)O2)Oc2ccc(cc2Cl)[C@H]1O` [VANCOMYCIN] showed an MIC [1] of 0.12 µg/mL (≈ 0.0828 µM).
`COc1c(N2C[C@@H]3CCCN[C@@H]3C2)c(F)cc2c(=O)c(C(=O)O)cn(C3CC3)c12` [MOXIFLOXACIN] was tested, and the MIC [1] was 0.12 µg/mL (≈ 0.299 µM).
For `CO/N=C(\C(=O)N[C@@H]1C(=O)N2C(C(=O)O)=C(CSc3nc(=O)c(O)nn3C)CS[C@H]12)c1csc(N)n1` [CEFTRIAXONE], the MIC [1] was 0.5 µg/mL (≈ 0.902 µM), the log10CFU/ml [2] was -4.04 and the Activity [3] was 2500 cpm/min.
In the case of `CCCCCCCCCC(=O)N[C@@H](Cc1c[nH]c2ccccc12)C(=O)N[C@H](CC(N)=O)C(=O)N[C@@H](CC(=O)O)C(=O)N[C@@H]1C(=O)NCC(=O)N[C@@H](CCCN)C(=O)N[C@@H](CC(=O)O)C(=O)N[C@H](C)C(=O)N[C@@H](CC(=O)O)C(=O)NCC(=O)N[C@H](CO)C(=O)N[C@@H]([C@H](C)CC(=O)O)C(=O)N[C@@H](CC(=O)c2ccccc2N)C(=O)O[C@@H]1C`, the MIC [1] is reported as 0.06 µg/mL (≈ 0.037 µM), the log10CFU/ml [4] is reported as -6.64 and the Activity [5] is reported as 250 cpm/min.
